Our source for the IC50 values is patent US20250340557A1, “PYRIMIDINE DERIVATIVE” (ASKA PHARMACEUTICAL CO., LTD., priority 2022, published 2025).

pIC50: −log10 of the molar value.

The test concerns the target T1, human mPGES-1 (Homo sapiens, UniProt O14684).
T1 construct: made in house; host or cells: COS-1 cells (transient transfection; microsomal fraction used as enzyme)
T1 sequence (O14684 1-152): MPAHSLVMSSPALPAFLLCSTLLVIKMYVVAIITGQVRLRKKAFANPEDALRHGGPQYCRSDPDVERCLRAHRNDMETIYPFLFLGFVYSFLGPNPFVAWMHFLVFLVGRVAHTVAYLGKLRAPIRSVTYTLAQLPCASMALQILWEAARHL
As to the kind of experiment: Test for mPGES-1 inhibitory activity (microsomal enzyme, PGE2 EIA). The format is biochemical. Particulars: microsomes of COS-1 cells transfected with human mPGES-1 cDNA; PGH2 1 μM; 4° C., 4 minutes; PGE2 by EIA; read-out: h mPGES1 IC50. The essentials:
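IC50 values were derived from EIA-quantified PGE2 after a 4 min, 4 °C reaction with PGH2 at 1 μM final, stopped with ferric chloride/citric acid. Beforehand, compound (2% DMSO final) sat 15 min at 4 °C with human mPGES-1 microsomes from transiently transfected COS-1 cells. Buffer was sodium phosphate pH 7.2 containing 2.5 mM reduced glutathione and 1 mM EDTA.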

Usually pIC50 stands for the IC50 on a negative log10 scale, so that one unit is a factor of ten. In the case of `Cc1cc(=O)[nH]c(-c2c(C(F)(F)F)ccc(CNC(=O)[C@H]3C[C@H](OCc4ccc(F)cc4F)C3)c2F)n1` [Example 184, trans-3-[(2,4-difluorobenzyl)oxy]-N-[2-fluoro-3-(4-methyl-6-oxo-1,6-dihydropyrimidin-2-yl)-4-(trifluoromethyl)benzyl]cyclobutane-1-carboxamide], the pIC50 is > 9.00.

Regarding `O=c1cc(C(F)(F)F)nc(-c2c(C(F)(F)F)ccc(CNC(=O)[C@H]3C[C@@H](OCc4ccc(C(F)(F)F)cc4)C3)c2F)[nH]1` [Example 147, cis-N-{2-fluoro-3-[6-oxo-4-(trifluoromethyl)-1,6-dihydropyrimidin-2-yl]-4-(trifluoromethyl)benzyl}-3-{[4-(trifluoromethyl)benzyl]oxy}cyclobutane-1-carboxamide], the negative-log IC50 (pIC50) is > 9.00.

In the case of `O=c1cc(C(F)(F)F)nc(-c2c(C(F)(F)F)ccc(CNC(=O)[C@H]3C[C@H](Oc4ccc(C(F)(F)F)cn4)C3)c2F)[nH]1` [Example 249, trans-N-{2-fluoro-3-[6-oxo-4-(trifluoromethyl)-1,6-dihydropyrimidin-2-yl]-4-(trifluoromethyl)benzyl}-3-{[5-(trifluoromethyl)pyridin-2-yl]oxy}cyclobutane-1-carboxamide], the pIC50 is > 9.00.

For the molecule `CCc1cc(=O)[nH]c(-c2c(C(F)(F)F)ccc(CNC(=O)[C@H]3C[C@H](OCc4cccc(F)c4F)C3)c2F)n1` [Example 206, trans-3-[(2,3-difluorobenzyl)oxy]-N-[3-(4-ethyl-6-oxo-1,6-dihydropyrimidin-2-yl)-2-fluoro-4-(trifluoromethyl)benzyl]cyclobutane-1-carboxamide], the pIC50 is 7.82.
